Results on two compounds are retold here after patent EP2229940B1, “Pharmaceutical composition presenting anti-inflammatory and anti-histaminic properties” (Bioxtract S.A., priority 2009, dated 2010).

The conditions of series [1]: 42 mg or 84 mg of oral curcumin; even under metabolised forms; cited from earlier work.
Series [2] is described as follows: Solubility of curcumin and quercetin in phosphate buffer pH 6.8. It is filed as physicochemical. The following applies: 0.2 µm filter. As for the experimental part: Following the same protocol, the same amount of quercetin (150 mg) is solubilized in phosphate buffer pH 6.8. […] Solubilized quercetin: […] of the initial dose.

On to `COc1cc(C=CC(=O)CC(=O)C=Cc2ccc(O)c(OC)c2)ccc1O` [curcumin, 1,7-bis(4-hydroxyl-3-methoxyphenyl)-1,6-heptadiene-3,5-dione], for which the “oral bioavailability of low dosages of curcumin” value in series [1] is given as “not bioavailable at all”. Further, the Solubilized curcumin in series [2] (84 mg curcumin in 900 ml phosphate buffer pH 6.8, 1 hour at 37°C) is recorded as 0.004 % of the initial dose.
For the compound `O=c1c(O)c(-c2ccc(O)c(O)c2)oc2cc(O)cc(O)c12` [quercetin, Quercetin], the Solubilized quercetin in series [2] (900 ml phosphate buffer pH 6.8, 1 h at 37°C) is 4 % of the initial dose.
